In patent publication US11510965B2, “Vesicles comprising epidermal growth factor and compositions thereof” (Centro de Ingeniería Genética y Biotecnología, priority 2012, dated 2022):

Experiments:
[1] = tested on: Candida albicans; assay: Agar diffusion method, fungicidal activity; assay type: cell-based; conditions: 28° C., 72 hours; controls 100 μg/ml
Experimental: (§1) This activity was determined using the agar diffusion method (Manual of Clinical Microbiology. 6th ed. Washington, DC: ASM; 1995). The effectiveness of the different suspensions was assayed against Gram positive bacteria (Bacillus subtilis, Staphylococcus aureus), Gram negative bacteria (E. coli, Proteus mirabilis), and against fungi (Candida albicans, Aspergillus niger) using the technique of wells in nutrient agar plates. These microorganisms were identified and provided by the microorganism collection BCCM/LMG (Belgium). Bacteria were grown overnight at 37° C. in Tryptone Soy Broth (Oxoid), and fungi were incubated for 72 hours at 28° C. in Sabouraud Dextrose Broth (Oxoid). These suspensions were used as inocula. A final inoculum, using 100 μl of a suspension containing 10^8 colony forming units/ml of bacteria, or 10^4 spores/ml of fungus, was spread on Tryptone Soy Agar and Sabouraud Dextrose Agar (Oxoid) plates, respectively. The disk (6 mm in diameter) was impregnated with each of the different vesicle suspensions to be tested. […] Assay plates were incubated at 37° C. for 24 hours for bacteria, and 28° C. during 72 hours for fungi, depending on the incubation time required for visible growth.

[2] = tested on: Aspergillus niger; assay: Agar diffusion method, fungicidal activity; assay type: cell-based; conditions: 28° C., 72 hours; controls 100 μg/ml
Experimental: as §1

[3] = cholesterol:CTAB vesicles, DELOS-SUSP; cited from earlier work

| Compound | Fungicidal activity (Inhibition zone) C. albicans [1] [mm] | Fungicidal activity (Inhibition zone) A. niger [2] [mm] | gentamicin encapsulation [3] [%] |
| --- | --- | --- | --- |
| OC(Cn1cncn1)(Cn1cncn1)c1ccc(F)cc1F [Fluconazole, fluconazole] | 22 | 21 | – |
| gentamicin | – | – | < 2 |
